# According to patent publication US20070027120A1, “Methods of using vitamin D compounds in the treatment of myelodysplastic syndromes” (priority 2002, published 2007):
# Where two headings read alike, the source gives them in different places.
# Tests used:
# refractory malignancies = details: weekly HDPA; cited from earlier work
# [1] = test system: low risk MDS and refractory anemia unresponsive to erythropoietin; assay: Phase 2 trial of high dose pulse administration of calcitriol; assay type: in vivo, human
# Experimental: Patients having low risk MDS and refractory anemia unresponsive to erythropoietin were entered into a Phase 2 trial to evaluate the effect of high dose pulse administration of calcitriol. These patients are red blood cell transfusion dependent because of severe anemia. Patients were administered weekly oral calcitriol at a dose of 45 μg for 20 consecutive weeks. The calcitriol was formulated in a composition containing the following excipients with the amount given in approximate percentage by weight: 65% MIGLYOL 812N®, 30% […] 44/14®, 5% vitamin-E TPGS and about 0.05% each of butylated hydroxytoluene (BHT) and butylated hydroxyanisole (BHA).
# MDS [2] = details: cited from earlier work
# [3] = relative to calcitriol; cited from earlier work
# MDS [4] = details: 75 mg/m^2/day subcutaneously for 7 days out of 28; cited from earlier work
# MDS [5] = details: cited from earlier work; remark: listed apart in the source
# [6] = Patient #1, 45 μg oral weekly for 20 weeks
# [7] = Patient #3, 45 μg oral weekly for 20 weeks
compound,measurement,setting,value
"C=C1/C(=C/C=C2/CCC[C@@]3(C)C2CC[C@@H]3[C@H](C)CCCC(C)(C)O)C[C@@H](O)C[C@@H]1O (stereo in doubt) [calcitriol, 1α,25-dihydroxycholecalciferol]",dose-limiting toxicity,refractory malignancies,no dose-limiting toxicity
same,mean peak calcitriol levels,refractory malignancies,within the therapeutic range
same,protocol defined response,[1]; [6],minor response (A minor erythroid responder is a subject with a baseline hemoglobin of less than 11 g/dL who experiences an increase of 1 to 2 g/dL from baseline)
same,rise in hemoglobin as compared to baseline,[1]; [6],more than one
same,decrease in required red blood cell transfusions as compared to baseline,"[1]; Patient #2, 45 μg oral weekly for 20 weeks",50%
same,protocol defined response,[1]; [7],major response (A major erythroid responder is a subject with a baseline hemoglobin of less than 11 g/dL who experiences an increase of greater than or equal to 2 g/dL from the baseline)
same,rise in hemoglobin as compared to baseline,[1]; [7],more than two
same,dose at which hypercalcemia was induced,MDS [2]; daily administration (Koeffler et al.),2 µg/day
same,maximum dose administered without hypercalcemia,MDS [2]; subjects with MDS (Mellibovsky et al.),0.75 µg/day
same,calcemic index,[3],1
Nc1ncn([C@@H]2O[C@H](CO)[C@@H](O)[C@H]2O)c(=O)n1 [5-azacytidine],patients with a complete response,MDS [4],7%
same,patients with at least a partial response,MDS [4],~60%
C=C1/C(=C\C=C2/CCC[C@]3(C)[C@@H]([C@H](C)/C=C/[C@@H](O)C4CC4)CC[C@@H]23)C[C@@H](O)C[C@@H]1O [calcipotriol],calcemic index,[3],about 0.01
"EPO: erythropoietin, hematopoietic growth factor",subjects who respond,MDS [5]; EPO administered with G-CSF,about 40%
same,subjects who respond,MDS [5]; EPO alone,about 20%
same,rate of responsiveness,MDS [5]; refractory anemia and refractory anemia with ring sideroblasts,21%
same,rate of responsiveness,MDS [5]; refractory anemia with excess blasts,8%
